Tests used:
[1] = Antitumor activity against human MES-SA cells after 24 hrs by MTT assay; format: functional; details: read-out: ED50 (the source's name)
[2] = Inhibition of NADH-ubiquinone oxidoreductase assessed by NADH oxidase activity in beef heart submitochondrial particles; design: species or system Bos taurus
[3] = tested on: HT-29; assay: Antitumor activity against human HT29 cells after 24 hrs by MTT assay; format: functional; details: HT-29, 24 h, read-out: ED50 (the source's name)
[4] = tested on: MCF7; assay: Antitumor activity against human MCF7 cells after 24 hrs by MTT assay; format: functional; details: MCF7, 24 h, read-out: ED50 (the source's name)
[5] = tested on: HepG2; assay: Antitumor activity against human HepG2 cells after 24 hrs by MTT assay; format: functional; details: HepG2, 24 h, read-out: ED50 (the source's name)
[6] = Antitumor activity against doxorubucin-resistant human MES-SA/Dx5 cells by MTT assay after 24 hrs; format: functional; details: MES-SA/Dx5, 24 h, read-out: ED50 (the source's name)
[7] = tested on: A549; assay: Antitumor activity against human A549 cells after 24 hrs by MTT assay; format: functional; details: A549, 24 h, read-out: ED50 (the source's name)

Structure (SMILES): CCCCCCCCCC[C@H](OC(C)=O)[C@H]1CC[C@H]([C@H]2CC[C@H]([C@H](O)CCCCC(=O)CCCCCCCC3=C[C@H](C)OC3=O)O2)O1
- EC50 [1]: 43 µM
- IC50 [2]: 0.0034 µM
- EC50 [3]: 154 µM
- EC50 [4]: 50 µM
- EC50 [5]: 18 µM
- EC50 [6]: 83 µM
- EC50 [7]: 192 µM

Structure (SMILES): CCCCCCCCCC[C@H](O)[C@H]1CC[C@H]([C@H]2CC[C@H]([C@@H](CCCCC(=O)CCCCCCCC3=C[C@H](C)OC3=O)OC(C)=O)O2)O1
- EC50 [1]: 76 µM
- IC50 [2]: 0.0028 µM
- EC50 [3]: 169 µM
- EC50 [4]: 66 µM
- EC50 [5]: 51 µM
- EC50 [6]: 97 µM
- EC50 [7]: 101 µM

Structure (SMILES): CCCCCCCCCC[C@H](OC(C)=O)[C@H]1CC[C@H]([C@H]2CC[C@H]([C@@H](CCCCC(=O)CCCCCCCC3=C[C@H](C)OC3=O)OC(C)=O)O2)O1
- EC50 [1]: 28 µM
- IC50 [2]: 0.0004 µM
- EC50 [3]: 195 µM
- EC50 [4]: 29 µM
- EC50 [5]: 9 µM
- EC50 [6]: 56 µM
- EC50 [7]: 60 µM

Structure (SMILES): COc1cccc2c1C(=O)c1c(O)c3c(c(O)c1C2=O)C[C@@](O)(C(=O)CO)C[C@@H]3O[C@H]1C[C@H](N)[C@H](O)[C@H](C)O1 [DOXORUBICIN]
- EC50 [1]: 173 µM
- EC50 [3]: 274 µM
- EC50 [4]: 8 µM
- EC50 [5]: 102 µM
- EC50 [6]: > 500 µM
- EC50 [7]: 152 µM

Structure (SMILES): CCCCCCCCCC[C@H](O)[C@H]1CC[C@H]([C@H]2CC[C@H]([C@H](O)CCCCC(=O)CCCCCCCC3=C[C@H](C)OC3=O)O2)O1 [GUANACONE]
- EC50 [1]: 22 µM
- IC50 [2]: 0.0012 µM
- EC50 [3]: 71 µM
- EC50 [4]: 39 µM
- EC50 [5]: 11 µM
- EC50 [6]: 52 µM
- EC50 [7]: 148 µM

Structure (SMILES): C=C(C)[C@H]1Cc2c(ccc3c2O[C@@H]2COc4cc(OC)c(OC)cc4[C@@H]2C3=O)O1 [ROTENONE]
- EC50 [1]: 147 µM
- IC50 [2]: 0.0051 µM
- EC50 [3]: 202 µM
- EC50 [4]: 161 µM
- EC50 [5]: 15 µM
- EC50 [6]: 214 µM
- EC50 [7]: 26 µM

Source: ChEMBL document CHEMBL1143664, “New antitumoral acetogenin 'Guanacone type' derivatives: isolation and bioactivity. Molecular dynamics simulation of diacetyl-guanacone” (Bioorg Med Chem, 2007)
